According to patent US20210261561A1, “BICYCLIC HETEROCYCLE DERIVATIVES HAVING SELECTIVE BACE1 INHIBITORY ACTIVITY” (SHIONOGI & CO., LTD., priority 2018, published 2021):
One block for each molecule: values may come before it.

How the values were obtained:
BACE2 = molecular target: T1, BACE2 (Mus musculus, UniProt Q9JL18); assay: BACE2 cellular assay in MIN6 cells, secreted TMEM27 (Test Example 2-5); format: cell-based; details: 24 hours incubation, secreted TMEM27 by MSD, read-out: Cellular MSD assay in Min6 cells TV1EV127 pIC50 (converted)
T1 construct: endogenous in cells; host or cells: MIN6 mouse insulinoma cells expressing Flag-V5-TMEM27-HA
T1 sequence (Q9JL18 63-514): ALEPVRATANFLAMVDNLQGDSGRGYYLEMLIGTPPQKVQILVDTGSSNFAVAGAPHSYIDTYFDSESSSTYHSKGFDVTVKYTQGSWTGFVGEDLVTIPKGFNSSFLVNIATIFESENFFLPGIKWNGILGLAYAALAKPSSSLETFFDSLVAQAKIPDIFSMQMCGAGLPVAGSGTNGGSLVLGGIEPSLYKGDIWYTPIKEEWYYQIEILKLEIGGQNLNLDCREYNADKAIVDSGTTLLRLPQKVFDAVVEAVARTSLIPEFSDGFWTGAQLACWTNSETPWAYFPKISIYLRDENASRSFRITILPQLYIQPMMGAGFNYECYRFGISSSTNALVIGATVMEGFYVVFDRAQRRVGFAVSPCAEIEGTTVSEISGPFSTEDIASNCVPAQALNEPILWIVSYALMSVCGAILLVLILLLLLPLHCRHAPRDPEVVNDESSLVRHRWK
Procedure: Cellular BACE2 activity was measured by determination of the level of secreted TMEM27 into the medium of MIN6 cells using an MSD platform. The assay is based on the mouse insulinoma MIN6 cells expressing Flag-V5-TMEM27-HA. When BACE2 cleaves TMEM27 the N-terminal part of TMEM27 with the V5-Flag tag will be shed into the medium, and the amount of this cleaved product is measured with the MSD assay.
Briefly in a 96-well format the cells are incubated for 24 hours in the presence of the compound followed by the measurement of secreted TMEM27 in the medium via MSD using FLAG-L5 coating antibody and a V5 detection antibody. When TMEM27 is captured on the electrode surface of the multi-array microplate the detection antibody, conjugated with the sulfo-Tag™, is in close proximity of the surface, it generates a light via a series of reduction and oxidation reactions. The intensity of the emitted light is measured with the MSD imager to provide a quantitative measure for the analytes in the sample.
Data are analysed using Screener (Registered trademark) (Genedata, Switzerland). Data were normalized and % inhibition=100−[(sample−LC)/(HC−LC))*100], was plotted versus the log concentration of the test compound. Curves were analysed using non-linear regression analysis and IC50 values (inhibitory concentration causing 50% inhibition of activity) were derived from individual curves.
LC=Median of the low control values
=Low control: Reaction without enzyme
HC=Median of the High control values
=High Control: Reaction with enzyme
% Inhibition=100−[(sample−LC)/(HC−LC)*100]

[1] = test system: Abeta 1-37, Abeta 1-38, Abeta 1-40 and Abeta 1-42 in cerebrospinal fluid (CSF); assay: Pharmacology in the beagle dog, beta-amyloid profile in CSF (Test Example 18-2); format: in vivo; details: for % Decrease in Abeta 1-42 at 24 h^(a) or 25 h^(b) post dosing compared to own baseline: 24 h or 25 h
Procedure: Test compounds were tested to evaluate the effect on the beta-amyloid profile in cerebrospinal fluid (CSF) of dogs after a single dose, in combination with pharmacokinetic (PK) follow up and limited safety evaluation.
For each of compound II-6 or II-10, four beagle dogs (2 males, 2 females) were dosed with vehicle (1 mL/kg of an aqueous solution of 20% cyclodextrin) and 12 beagle dogs (2 males and 2 females per dosage group) were dosed with test compounds as follows:
In the case of compounds II-2, II-3 and II-18, two beagle dogs (1 male, 1 female) were dosed with vehicle (1 mL/kg of an aqueous solution of 20% cyclodextrin) and 4 beagle dogs (2 males and 2 females) were dosed with test compound (II-2, II-3, or II-18) at the doses indicated in the following Table in an aqueous 20% cyclodextrin solution with a concentration in mg/mL identical to the dose given in mg/kg) on an empty stomach.
CSF was taken in conscious animals directly from the lateral ventricle via a cannula which was screwed in the skull and covered with subcutaneous tissue and skin, before and at 4, 8, 25 and 49 hours after dosing. Eight hours after dosing the animals got access to their regular meal for 30 minutes. Blood was taken for PK follow up (0.5, 1, 2, 4, 8, 25 and 49 hours) and serum samples for biochemistry were taken before and at 8 and 25 h after dosing. The CSF samples were used for measurement of Abeta 1-37, Abeta 1-38, Abeta 1-40 and Abeta 1-42.

Compound: CC1(S(C)(=O)=O)CCC(CF)(c2cc(NC(=O)c3cc4c(cn3)OCCO4)ccc2F)N=C1N (stereo not drawn) [II-1]
IC50 (BACE2): 589 nM

Compound: [2H]C1([2H])Oc2cnc(C(=O)Nc3ccc(F)c([C@]4(CF)CC[C@@](C)(S(C)(=O)=O)C(N)=N4)c3)cc2OC1([2H])[2H] [II-2]
IC50 (BACE2): 251 nM
% Decrease in Abeta 1-42 at 8 h post dosing compared to own baseline ([1]; single dose 0.63 mg/kg): 33%

Compound: [2H]C1([2H])Oc2cnc(C(=O)Nc3ccc(F)c([C@]4(CF)CC[C@@](C)(S(C)(=O)=O)C(N)=N4)c3)cc2OC1([2H])[2H] [II-3]
IC50 (BACE2): 324 nM
% Decrease in Abeta 1-42 at 8 h post dosing compared to own baseline ([1]; single dose 5 mg/kg): 61%

Compound: CC1(S(C)(=O)=O)CCC(CF)(c2cc(NC(=O)c3cc4c(cn3)OCCCO4)ccc2F)N=C1N (stereo not drawn) [II-5]
IC50 (BACE2): 1480 nM

Compound: CC1(S(C)(=O)=O)CCC(CF)(c2cc(NC(=O)c3ncc4c(c3F)OCCO4)ccc2F)N=C1N (stereo not drawn) [II-8]
IC50 (BACE2): 380 nM

Compound: CC1(S(C)(=O)=O)CCC(CF)(c2cc(NC(=O)c3ncc4c(c3F)OCC(F)(F)O4)ccc2F)N=C1N (stereo not drawn) [II-14]
IC50 (BACE2): 200 nM

Compound: [2H]C1([2H])Oc2cnc(C(=O)Nc3cc(F)c(F)c(C4(CF)CCC(C)(S(C)(=O)=O)C(N)=N4)c3)cc2OC1([2H])[2H] (stereo not drawn) [II-16]
IC50 (BACE2): 1660 nM

Compound: CC1(S(C)(=O)=O)CCC(CF)(c2cc(NC(=O)c3cc4c(cn3)OC(F)(F)CO4)cc(F)c2F)N=C1N (stereo not drawn) [II-17]
IC50 (BACE2): 339 nM

Compound: CCS(=O)(=O)C1(C)CCC(CF)(c2cc(NC(=O)c3cc4c(cn3)OC(F)(F)CO4)ccc2F)N=C1N (stereo not drawn) [II-19]
IC50 (BACE2): 151 nM

Compound: CC1(S(C)(=O)=O)CCC(CF)(c2cc(NC(=O)c3ncc4c(n3)OCCO4)cc(F)c2F)N=C1N (stereo not drawn) [II-22]
IC50 (BACE2): 871 nM

Compound: CC1(S(C)(=O)=O)CCC(CF)(c2cc(NC(=O)c3ncc4c(c3Cl)OCCO4)ccc2F)N=C1N (stereo not drawn) [II-26]
IC50 (BACE2): 1910 nM

Second part, led by results:

IC50 (BACE2): 81.3 nM
Compound: CC1(S(C)(=O)=O)CCC(CF)(c2cc(NC(=O)c3cc4c(cn3)OCO4)ccc2F)N=C1N (stereo not drawn) [II-4]

IC50 (BACE2): 174 nM
Compound: C[C@@]1(S(C)(=O)=O)CC[C@@](CF)(c2cc(NC(=O)c3cc4c(cn3)OC(F)(F)O4)ccc2F)N=C1N [II-6]
% Decrease in Abeta 1-42 at 8 h post dosing compared to own baseline ([1]; single dose 0.16 mg/kg): 51%
% Decrease in Abeta 1-42 at 24 h^(a) or 25 h^(b) post dosing compared to own baseline ([1]; single dose 0.16 mg/kg): 31%
% Decrease in Abeta 1-42 at 8 h post dosing compared to own baseline ([1]; single dose 0.31 mg/kg): 69%
% Decrease in Abeta 1-42 at 49 h post dosing compared to own baseline ([1]; single dose 0.31 mg/kg): 22%
% Decrease in Abeta 1-42 at 8 h post dosing compared to own baseline ([1]; single dose 0.63 mg/kg): 68%
% Decrease in Abeta 1-42 at 24 h^(a) or 25 h^(b) post dosing compared to own baseline ([1]; single dose 0.63 mg/kg): 62%

IC50 (BACE2): 138 nM
Compound: C[C@@]1(S(C)(=O)=O)CC[C@@](CF)(c2cc(NC(=O)c3cc4c(cn3)OC(F)(F)O4)ccc2F)N=C1N [II-7]

IC50 (BACE2): 72.4 nM
Compound: C[C@@]1(S(C)(=O)=O)CC[C@@](CF)(c2cc(NC(=O)c3cc4c(cn3)OC(F)(F)CO4)ccc2F)N=C1N [II-10]
% Decrease in Abeta 1-42 at 8 h post dosing compared to own baseline ([1]; single dose 0.16 mg/kg): 37%
% Decrease in Abeta 1-42 at 8 h post dosing compared to own baseline ([1]; single dose 0.63 mg/kg): 68%
% Decrease in Abeta 1-42 at 24 h^(a) or 25 h^(b) post dosing compared to own baseline ([1]; single dose 0.63 mg/kg): 21%
% Decrease in Abeta 1-42 at 8 h post dosing compared to own baseline ([1]; single dose 1.25 mg/kg): 73%
% Decrease in Abeta 1-42 at 24 h^(a) or 25 h^(b) post dosing compared to own baseline ([1]; single dose 1.25 mg/kg): 27%
% Decrease in Abeta 1-42 at 8 h post dosing compared to own baseline ([1]; single dose 2.5 mg/kg): 76%
% Decrease in Abeta 1-42 at 24 h^(a) or 25 h^(b) post dosing compared to own baseline ([1]; single dose 2.5 mg/kg): 28%

IC50 (BACE2): 741 nM
Compound: CC1(S(C)(=O)=O)CCC(CF)(c2cc(NC(=O)c3ncc4c(c3F)OC(F)(F)O4)ccc2F)N=C1N (stereo not drawn) [II-13]

IC50 (BACE2): 309 nM
Compound: CCS(=O)(=O)[C@]1(C)CC[C@@](CF)(c2cc(NC(=O)c3cc4c(cn3)OC(F)(F)O4)ccc2F)N=C1N [II-20]
% Decrease in Abeta 1-42 at 8 h post dosing compared to own baseline ([1]; single dose 0.16 mg/kg): 51%
% Decrease in Abeta 1-42 at 24 h^(a) or 25 h^(b) post dosing compared to own baseline ([1]; single dose 0.16 mg/kg): 30%
% Decrease in Abeta 1-42 at 49 h post dosing compared to own baseline ([1]; single dose 0.16 mg/kg): 25%
% Decrease in Abeta 1-42 at 8 h post dosing compared to own baseline ([1]; single dose 0.63 mg/kg): 72%
% Decrease in Abeta 1-42 at 24 h^(a) or 25 h^(b) post dosing compared to own baseline ([1]; single dose 0.63 mg/kg): 70%
% Decrease in Abeta 1-42 at 49 h post dosing compared to own baseline ([1]; single dose 0.63 mg/kg): 52%
% Decrease in Abeta 1-42 at 8 h post dosing compared to own baseline ([1]; single dose 1 mg/kg): 73%
% Decrease in Abeta 1-42 at 24 h^(a) or 25 h^(b) post dosing compared to own baseline ([1]; single dose 1 mg/kg): 76%
% Decrease in Abeta 1-42 at 49 h post dosing compared to own baseline ([1]; single dose 1 mg/kg): 58%
% Decrease in Abeta 1-42 at 8 h post dosing compared to own baseline ([1]; single dose 3.75 mg/kg): 86%
% Decrease in Abeta 1-42 at 24 h^(a) or 25 h^(b) post dosing compared to own baseline ([1]; single dose 3.75 mg/kg): 91%
% Decrease in Abeta 1-42 at 49 h post dosing compared to own baseline ([1]; single dose 3.75 mg/kg): 85%

IC50 (BACE2): 661 nM
Compound: CC1(S(C)(=O)=O)CCC(CF)(c2cc(NC(=O)c3ncc4c(c3Cl)OC(F)(F)O4)ccc2F)N=C1N (stereo not drawn) [II-25]
